Entries after “also recorded” stand apart in the source; their conditions may differ.

Assay [1] deals with Gβγ-dependent activity of G protein-coupled receptor kinase 2 (GRK-2). The assay can be described thus: Rhodopsin phosphorylation assay (Gβγ-dependent GRK-2 activity). The class given is biochemical, bovine. The protocol:
All substances derived from the virtual screen were tested for their ability to inhibit the Gβγ-dependent activity of G protein-coupled receptor kinase 2 (GRK-2) in a rhodopsin phosphorylation assay. Stock solutions of 10mM of all compounds were dissolved in DMSO, for all assays (in vitro and cellular) DMSO was added in the same amount to the respective control group. The initial compound screen was carried out in a 96 well plate formate. The assay mix contained 15µM ATP, 10mM MgCl2, 20nM Gβγ (from bovine brain), 60nM GRK-2(purified from baculoviral culture), ^32P-ATP (approximately 200.000 cpm/assay point) and 10µM of the respective compound in 50µl assay buffer (20mM Hepes pH 7.2, 2mM EDTA); 600nM rhodopsin (purified from bovine retina) was added in the dark. Stimulation was achieved by incubation for 10-15 min under yellow light. Subsequently, the mix was aspirated with a cell harvester and applied onto a glass-fiber membrane (GF/C); then, the assay plate was washed 10 times with 10ml assay buffer each. The membrane was counted in a Wallac counter (Cerenkov). Additionally, 45µl of the assay mix were counted to determine the total amount of radioactivity in the assay. […]
To test the ability of the compounds to inhibit Gβγ-dependent signalling a rhodopsin phosphorylation assay may be used. […] The effect of different compound concentrations may be determined in the same assay. […]

Assay [2] relates to native M1 receptor in HEK 293 cells. Put plainly: Calcium measurements (Fura-2) in HEK 293 cells after carbachol (Gq-coupled pathway). The class given is cell-based. The note with it: Figure 8; 30 µM compound, 30 minutes pre-incubation; 100 µM carbachol.
The subject of assay [3] is isolated rabbit cardiomyocytes. The assay can be described thus: Measurement of cell shortening of isolated cardiomyocytes. The class given is cell-based. The note with it: Figure 10; 10 µM COM1 for 10 minutes, then isoproterenol 1x10^-9 - 1x10^-7M; n = 8 cells per group. On the procedure: Female New Zealand White rabbits (12 weeks old) were anesthesized with thiopental (75-1 00mg/kg) and 500 U heparin were injected intravenously. The thorax was opened and the heart was excised and put into ice-cold NaCl solution (0.9%). Fat and pericardium were removed. The aorta was attached to a perfusion system connected to a pump and the heart was retrogradely pefused at a flow rate of 20-40 ml/min with oxygenated (95% oxygen, 5% CO2) Powell medium (110mM NaCl, 2.5mM KCI, KH2PO4 1.2 mM, MgSO4 1.2 mM, NaHCO3 25 mM, Glucose 11 mM; pH 7.4) until all blood was washed out. […]
Cell shortening was measured with an electro-optical monitoring system connected to an online digitalized assessment of amplitude and velocity of shortening and relaxation (Scientific Instruments). […] Cell shortening was monitored using an edge detection camera and the data were transferred to a computer and fractional shortening was calculated for a single cell.
Overexpression of proteins which can bind Gβγ subunits, such as phosducin or the C-terminus of GRK-2, result in an increased contractility of cardiomyocytes. Therefore, the compounds' effects on this important parameter were determined. In isolated rabbit cardiomyocytes, basal, compound-incubated and isoproterenol- stimulated contractility were measured and expressed as fractional shortening of the single cell.

With `O=C(Nc1ccccc1C(=O)O)c1ccc2c(c1)C(=O)N(c1ccc(Oc3ccc(N4C(=O)c5ccc(C(=O)Nc6ccccc6C(=O)O)cc5C4=O)cc3)cc1)C2=O` [COM2, 2-[({2-[4-(4-{5-[(2-carboxyanilino)carbonyl]-1,3-dioxo-1,3-dihydro-2H-isoindol-2-yl}phenoxy)phenyl]-1,3-dioxo-2,3-dihydro-1H-isoindol-5-yl}carbonyl)amino]benzoic acid], the “Effect of increasing concentrations of Gβγ on the inhibition of GRK-2-mediated phosphorylation of rhodopsin” value in assay [1] (Figure 3, COM2 3µM, GRK-2 50nM, rhodopsin 100nM, Gβγ 3 to 1000 nM, result at 1000 nM Gβγ) is on record as “completely blunted; also recorded: completely reversed”. For the same compound, the “Calcium release mediated via the Gq-coupled pathway” value in assay [2] is recorded as “does not have an effect”.
As for `O=C(C=Cc1ccco1)Nc1ccc(-c2ccc(NC(=O)C=Cc3ccco3)c(C(=O)O)c2)cc1C(=O)O` [COM3, 4,4'-bis{[3-(2-furyl)acryloyl]amino}[1,1'-biphenyl]-3,3'-dicarboxylic acid], in assay [2], the “Calcium release mediated via the Gq-coupled pathway” value is given as “displays an inhibitory potential”.
For `O=C(Nc1ccc(-c2ccc(NC(=O)c3ccc(F)cc3)c(C(=O)O)c2)cc1C(=O)O)c1ccc(F)cc1` [COM1, 4,4'-bis[(4-fluorobenzoyl)amino][1,1'-biphenyl]-3,3'-dicarboxylic acid], the “Reversal of inhibition of Gβγ-dependent GRK-2 activity by increasing concentrations of the substrate rhodopsin” value in assay [1] (Figure 4, GRK-2 50 nM, COM1 30 µM, rhodopsin 10-3000 nM) was “can be reversed”. For the same compound, in assay [3], the “Isoproterenol-stimulated contractility (fractional shortening, contraction amplitude)” value is on record as “positive inotropic effect”.

These data come from patent publication EP1477475A1, “Compounds for use as a medicine increasing the contractility of a heart, a heart muscle or cells of a heart muscle” (Procorde GmbH, priority 2003, dated 2004).
